How the values were obtained:
phosphodiesterase 4A = molecular target: T1, phosphodiesterase 4A (Homo sapiens, UniProt P27815); test: Recombinant human PDE4A assay; type: biochemical
T1 construct: made in house; host or cells: E. coli

[1] = tested on: anaphylactic bronchoconstriction; test: Effect on anaphylactic bronchoconstriction response; type: in vivo, guinea pig; settings: oral administration one hour before the antigen; from AUC suppression ratio
Method: For passive sensitization, 1 ml of rabbit anti-ovalbumine serum was peritoneally administered to male Hartley guinea pigs, and 16 to 24 hours later, ovalbumine was intravenously administered as the antigen. The induced anaphylactic bronchoconstriction was measured by the modified Konzett and Rossler method. Each of the tracheal cannulae was completely closed at the end of the measurement and the measured constriction was defined as the maximum constriction. Changes in the constriction were measured as percentage in the maximum constriction. The area under the curve (AUC) indicating the strength of the response was calculated by an image analyzer (MCID system, Imaging Research Company). The test compound was orally administered one hour before the antigen administration, and the ID50 value of each drug was calculated from the AUC suppression ratio by linear regression analysis.

T1 sequence (P27815 224-886 limits assumed): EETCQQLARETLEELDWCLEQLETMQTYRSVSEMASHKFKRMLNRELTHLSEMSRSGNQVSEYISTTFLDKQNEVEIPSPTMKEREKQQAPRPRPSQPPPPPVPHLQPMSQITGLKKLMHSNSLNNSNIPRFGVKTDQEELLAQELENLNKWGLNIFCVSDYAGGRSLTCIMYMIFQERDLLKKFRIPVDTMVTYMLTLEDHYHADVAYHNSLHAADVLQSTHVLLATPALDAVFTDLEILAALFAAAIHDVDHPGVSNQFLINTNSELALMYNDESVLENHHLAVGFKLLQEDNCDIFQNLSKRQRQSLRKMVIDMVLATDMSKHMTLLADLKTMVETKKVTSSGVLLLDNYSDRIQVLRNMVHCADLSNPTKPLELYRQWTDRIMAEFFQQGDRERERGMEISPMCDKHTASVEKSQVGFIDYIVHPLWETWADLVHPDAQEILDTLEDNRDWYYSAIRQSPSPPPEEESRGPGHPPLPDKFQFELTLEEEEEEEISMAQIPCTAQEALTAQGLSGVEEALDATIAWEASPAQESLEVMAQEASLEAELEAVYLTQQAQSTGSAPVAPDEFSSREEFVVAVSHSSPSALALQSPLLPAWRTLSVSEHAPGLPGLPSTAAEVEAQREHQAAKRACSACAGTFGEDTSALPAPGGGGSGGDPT

COc1ccc(C(=O)Cc2ccncc2)c2c1OC1(CCCC1)C2.Cl [Compound 100, 7-Methoxy-4-[1-oxo-2-(4-pyridyl)ethyl]-spiro[2,3-dihydrobenzofuran-2,1′-cyclopentane].hydrochloride]
Enzyme Inhibitory Activity (%, 10^−7 M) (phosphodiesterase 4A): 99% | ID50 value (50% inhibitory dose) [1]: 0.53 mg/kg

Reference: patent publication US6716987B1, “Derivatives of benzofuran or benzodioxazole compounds” (Kyowa Hakko Kogyo Co., Ltd., priority 1995, dated 2004)
